Results: ChEMBL document CHEMBL3286326, “Chiral Resolution and Serendipitous Fluorination Reaction for the Selective Dopamine D3 Receptor Antagonist BAK2-66” (ACS Med Chem Lett, 2014)

What was measured:
D(2) dopamine receptor = D(2) dopamine receptor (Homo sapiens, UniProt P14416); assay: Displacement of [3H]N-methylspiperone from human dopamine D2 receptor expressed in human HEK293 cell membrane for 1 hr by liquid scintillation counting analysis; assay type: cell membranes
D(4) dopamine receptor = biological target: T1, D(4) dopamine receptor (Homo sapiens, UniProt P21917); assay: Displacement of [3H]N-methylspiperone from human dopamine D4 receptor expressed in human HEK293 cell membrane for 1 hr by liquid scintillation counting analysis; assay type: cell membranes
T1 sequence (P21917 whole entry): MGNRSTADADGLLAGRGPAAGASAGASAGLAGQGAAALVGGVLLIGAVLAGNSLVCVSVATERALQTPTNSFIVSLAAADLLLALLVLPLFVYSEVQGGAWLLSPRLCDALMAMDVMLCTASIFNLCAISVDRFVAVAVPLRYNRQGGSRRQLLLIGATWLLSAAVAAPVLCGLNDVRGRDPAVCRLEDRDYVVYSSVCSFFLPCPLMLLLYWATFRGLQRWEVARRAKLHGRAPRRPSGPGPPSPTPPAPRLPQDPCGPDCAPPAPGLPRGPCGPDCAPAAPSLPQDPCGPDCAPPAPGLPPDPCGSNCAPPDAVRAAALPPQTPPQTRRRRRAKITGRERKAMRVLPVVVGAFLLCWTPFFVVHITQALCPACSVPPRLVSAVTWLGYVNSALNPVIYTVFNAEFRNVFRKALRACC

D(3) dopamine receptor = D(3) dopamine receptor (Homo sapiens, UniProt P35462); assay: biochemical
Sequence of D(3) dopamine receptor (P35462 whole entry): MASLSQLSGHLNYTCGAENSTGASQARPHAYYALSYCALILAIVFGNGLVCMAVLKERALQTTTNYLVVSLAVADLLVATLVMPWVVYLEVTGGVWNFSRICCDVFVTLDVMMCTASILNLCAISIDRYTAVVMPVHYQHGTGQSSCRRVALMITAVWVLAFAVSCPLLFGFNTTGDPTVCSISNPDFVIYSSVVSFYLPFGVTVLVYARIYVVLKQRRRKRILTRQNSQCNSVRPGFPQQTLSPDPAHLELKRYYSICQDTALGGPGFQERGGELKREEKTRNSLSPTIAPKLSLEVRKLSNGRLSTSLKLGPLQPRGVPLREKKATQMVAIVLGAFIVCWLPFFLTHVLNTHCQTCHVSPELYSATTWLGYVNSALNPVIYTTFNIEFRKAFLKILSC
Description: Displacement of [3H]N-methylspiperone from human dopamine D3 receptor expressed in human HEK293 cell membrane for 1 hr by liquid scintillation counting analysis

Sequence of D(2) dopamine receptor (P14416 whole entry): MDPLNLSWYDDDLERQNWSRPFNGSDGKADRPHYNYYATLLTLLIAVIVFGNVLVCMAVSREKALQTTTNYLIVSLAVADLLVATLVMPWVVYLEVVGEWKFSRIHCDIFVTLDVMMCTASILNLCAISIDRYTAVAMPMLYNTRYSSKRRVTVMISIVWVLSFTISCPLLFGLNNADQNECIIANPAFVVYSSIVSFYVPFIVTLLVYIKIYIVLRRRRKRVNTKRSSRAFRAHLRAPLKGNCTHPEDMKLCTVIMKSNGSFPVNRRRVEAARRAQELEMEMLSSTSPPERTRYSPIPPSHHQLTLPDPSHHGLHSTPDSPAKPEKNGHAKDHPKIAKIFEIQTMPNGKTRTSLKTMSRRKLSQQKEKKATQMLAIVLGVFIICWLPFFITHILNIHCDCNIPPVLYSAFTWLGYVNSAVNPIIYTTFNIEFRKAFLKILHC

Ki (D(2) dopamine receptor): 7.4 µM | Ki (D(4) dopamine receptor): > 3 µM | Ki (D(3) dopamine receptor): 560 nM
SMILES: O=C(NCCC(CF)N1CCN(c2cccc(Cl)c2Cl)CC1)c1cc2ccccc2o1 (stereo not drawn)
